How the values were obtained:
AZI1 RNA = conditions: LNCaP cells
TMPRSS2-ERG fusion [1] = system: TMPRSS2-ERG fusion
Experimental: LNCaP cells were cultured in this special medium for 24 hrs prior to plasmid transfection.
Transfection was performed using Turbofect transfection reagent (Thermo Scientific, #R0531) according to manufacturer's protocol. Briefly, 1 μg of a particular plasmid was first diluted in 100 μl of the serum-free DMEM followed by immediate mixing by pipetting. 4 μl of the transfection reagent was then added to the diluted DNA followed by mixing and incubation for 20 min. The DNA/transfection reagent mixture was then added drop wise to a well containing LNCaP cells in 1 ml medium.
For treating cultured cells, concentrated DHT stock was diluted as 10× working solutions (for example, for 0.9 μM final concentration, 10× is prepared as 9.0 μM) with the appropriate complete culture medium and used immediately. […] Six hrs post transfection, 111 μl of fresh 10× DHT working solutions was added to each well of 12-wells plate containing 1 ml medium and transfected cells.
Briefly, cells were suspended in 200 μl of PBS buffer and were then lysed with 400 μl of lysis buffer. The sample was then passed through the filter assembly resulting in the binding of the nucleic acids to the filter. The filter containing nucleic acids was then incubated with DNase I dissolved in DNase incubation buffer to degrade genomic and plasmid DNAs. The column was then rinsed with wash buffer and total RNA then eluted in a new tube for further analysis.
After the addition of dNTPs, the mixture was denatured at 65° C. for 5 minutes. This was followed by the addition of a master-mix containing 1× superscript buffer, 10 mM DTT, 5 mM Magnesium chloride, RNaseOUT and Superscript III reverse transcriptase. Reactions were carried out at 50° C. for 50 minutes and then terminated by incubation at 85° C. for 5 minutes. cDNA was then treated with RNase-H for 20 minutes at 37° C. to degrade RNA in DNA/RNA hybrid. 1 μl of cDNA was used as template for each subsequent PCR reaction.
The Denaturation, Annealing and Extension steps were performed 32 cycles for induced fusion RNA and 27 cycles for input RNA.

TMPRSS2 mRNA = conditions: LNCaP cells
TMPRSS2-ERG fusion [2] = system: TMPRSS2-ERG fusion; remark: listed apart in the source
ERG mRNA = test: RT-PCR of endogenous ERG mRNA in LNCaP cells

Compound: C[C@]12CCC(=O)C[C@@H]1CC[C@@H]1[C@@H]2CC[C@]2(C)[C@@H](O)CC[C@@H]12 [DHT, 5α-Androstan-17β-ol-3-one]
- endogenous AZI1 RNA expression (AZI1 RNA): upregulated
- DHT concentration at which fusion induction is detectable (TMPRSS2-ERG fusion [1]): ~0.6 µM
- DHT concentration at which fusion induction reaches its maximum (TMPRSS2-ERG fusion [1]): 1.5 µM
- TMPRSS2 mRNA expression (TMPRSS2 mRNA): upregulated
- TMPRSS2-ERG fusion transcript in PNT1A cells with DHT alone (TMPRSS2-ERG fusion [2]): no detectable fusion transcripts
- endogenous ERG mRNA (three-rounds of nested RT-PCR) (ERG mRNA; presence or absence of DHT or antisense-5): not detected
- endogenous ERG mRNA (RT-PCR) (ERG mRNA; wide range of DHT, presence or absence of antisense-5): not detected

From patent US12180473B2, “Chimeric RNA-driven genomic rearrangement in mammalian cells” (priority 2018, dated 2024)
